Test results reported in patent US12365680B2, “Polymorphs of the hydrochloride salt of linaprazan glurate” (Cinclus Pharma Holding AB (Publ), priority 2021, dated 2025).
Entries after “also recorded” stand apart in the source; their conditions may differ. Counter-ions that a name gives are not always drawn. Values belong to the compound of their own block, whether it stands above or below them.

What was measured:
[1] = Pharmacokinetics of linaprazan glurate after absorption; details: in vivo
[2] = Dynamic vapour sorption (DVS) hygroscopicity; format: physicochemical
Description: Analyses were performed on an SMS DVS-1 instrument. A few mg of the substance was added into an Al pan and exposed to stepwise RH changes during two identical consecutive cycles according to 0-10-20-30-40-50-60-70-80-90-80-70-60-50-40-30-20-10-0% RH using open loop mode. The experiments were performed using a gas flow rate of 200 mL/min and at 25° C. The dm/dt criteria applied was 0.001 weight-%/min during a 5-minutes window, with a maximum allowed time of 360 minutes and a minimum allowed time of 10 minutes for all steps.
The hygroscopicity of Form 1 (obtained by crystallisation from DMF using EtOAc as the anti-solvent) and Form 2 (obtained from a slurry in MeOH) was investigated using DVS at 25° C. […] With a water uptake of 0.2% at 90% RH, Form 1 can be classified as non-hygroscopic.
The water uptake is rapid when the relative humidity is increased, and the water loss is equally rapid when the relative humidity is decreased. The sorption behaviour is typical for a channel hydrate, where the crystal structure adapts to accommodate different amounts of water depending on the surrounding humidity. The water uptake of 4.7% at 90% RH corresponds to 1.3 water molecules per linaprazan glurate HCl unit.

intragastric acidity = test: Clinical Phase I study of linaprazan glurate, intragastric pH; format: in vivo; details: human, plasma, oral; after 22 hours; to maintain intra-gastric pH above 4 for 24 hours; read-out: minimal plasma concentration (Cmin) of linaprazan required
[3] = Phase I and II studies; cited from earlier work
[4] = Solubility of free base and HCl salt in media simulating gastric fluid (FaSSGF, FeDSGA); format: physicochemical; details: after 1 hour
Description: For solubility studies, HPLC was performed using an Agilent 1100 series Liquid Chromatography system, equipped with DAD spectrometer. Analyses were performed using a Waters X Bridge BEH C18 column (4.6×100 mm, 2.5 μm) at 30° C. Mobile phase: A=0.1% formic acid in water, B=0.1% formic acid in acetonitrile. Flow rate 0.8 mL/min. Mobile phase program:
The solubility of the crystalline free base (Form A) and the crystalline HCl salt of linaprazan glurate (mixture of Forms 1 and 2) was studied in Fasted State Simulated Gastric Fluid (FaSSGF, Biorelevant, batch FFF-0119-B; pH 1.6) and Fed State Gastric Acid (FeDSGA, Biorelevant, batch FEDGAS-120-A; pH 5.0).
Saturated solutions were prepared in 4 mL vials by adding a fixed weight of the crystalline base or the crystalline HCl salt to 2 mL of each of the different buffer solutions. Vials were sonicated for 10 minutes and then stirred with a magnetic stirrer on a water bath (37° C.) for 24 hours. Samples were taken after 1, 4 and 24 hours, in replicates, and analysed by HPLC-UV. Concentrations were calculated from a calibration curve, constructed using 8 calibration standards (serial dilutions of stock solutions of the free base and the HCl salt of linaprazan glurate).

[5] = cited from earlier work

solubility of the HCl salt relative to the free base ([4]; FeDSGA pH 5.0, 37° C.): more than 6.5 times
Compound: Cc1cccc(C)c1CNc1cc(C(=O)NCCOC(=O)CCCC(=O)O)cn2c(C)c(C)nc12 [HCl salt]

solubility of the free base relative to the HCl salt ([4]; FaSSGF pH 1.6, 37° C.): about 1.4 times
Compound: Cc1cccc(C)c1CNc1cc(C(=O)NCCOC(=O)CCCC(=O)O)cn2c(C)c(C)nc12 [free base]
solubility at pH 1 ([5]; pH 1): only slightly soluble
solubility in water at pH 6.8 ([5]; pH 6.8): practically insoluble

Continued, compound first:

Compound: Cc1cccc(C)c1CNc1cc(C(=O)NCCOC(=O)CCCC(=O)O)cn2c(C)c(C)nc12 [linaprazan glurate, 5-{2-[({8-[(2,6-dimethylbenzyl)amino]-2,3-dimethylimidazo[1,2-a]pyridine-6-yl}carbonyl)-amino]ethoxy}-5-oxopentanoic acid]
half-life in the body compared to linaprazan [1]: longer half-life
metabolism following absorption into the blood stream [1]: quickly metabolized into linaprazan
plasma concentration [1]: only very low and difficult to determine

Compound: Cc1cccc(C)c1CNc1cc(C(=O)NCCOC(=O)CCCC(=O)O)cn2c(C)c(C)nc12 [Form 2]
hygroscopicity (in words) ([2]; DVS at 25° C.): significant uptake of water at elevated humidities
water uptake ([2]; DVS at 25° C., 90% RH): 4.7%
water molecules per linaprazan glurate HCl unit ([2]; corresponds to water uptake at 90% RH): 1.3

Compound: Cc1cccc(C)c1CNc1cc(C(=O)NCCO)cn2c(C)c(C)nc12 [linaprazan]
concentration at 22 h (intragastric acidity): ≥ 240 nM
elimination [3]: quickly eliminated from the body
onset of action and effect [3]: fast onset of action and full effect at first dose
tolerability [3]: well tolerated

Compound: Cc1cccc(C)c1CNc1cc(C(=O)NCCOC(=O)CCCC(=O)O)cn2c(C)c(C)nc12 [Form 1]
hygroscopicity (in words) ([2]; DVS at 25° C.): non-hygroscopic; also recorded: very low hygroscopicity
